Assay results: PMC4231793 (Biology of blood and marrow transplantation : journal of …, 2012)
Several values for one entry are separate records, joined by “and”; a condition that tells them apart may be missing. Equal entries are not always repeated. Where two headings read alike, the source gives them in different places. Each block holds one molecule with its values, some of them ahead of it.

Key:
[1] = Population pharmacokinetic analysis; assay type: in vivo, human
[2] = ref [10], cited from earlier work
[3] = Noncompartmental pharmacokinetic analysis of whole-blood sirolimus; assay type: in vivo, human; settings: for concentration at 0 h: Co (trough concentration prior to oral dosing)
[4] = cited from earlier work; for AUC0–24: ref [9],[14]; for Half-life: ref [9]; for t1/2: pediatric renal transplant patients, every-12-hour schedule, calcineurin inhibitor-free protocol, ref [8]
[5] = assay type: in vivo, human
CYP3A4 = settings: compared with itraconazole, voriconazole, and posaconazole; ref [7],[23]; cited from earlier work
[6] = human, whole blood, oral, 2.5 mg/m^2/day
[7] = population estimate ± standard error
[8] = at 180 days, sirolimus, tacrolimus and methotrexate GVHD prophylaxis
[9] = of 63 subjects in the clinical study, sirolimus with tacrolimus
[10] = patients receiving concomitant fluconazole (i.v. or oral)

- Clearance (Cl/F), population estimate ([1]; 37 patients, 333 concentrations, estimate ± standard error): 6.66 ± 1.10 L/h
- CL/F [1, 6]: 2.83 mL/min/kg
- Vd [1, 6]: 26.9 ± 7.7 L
- Absorption rate constant (ka) [1, 7]: 0.0535 ± 0.0104 h⁻¹
- Intercompartment clearance (Q) [1, 7]: 4.62 ± 2.00 L/h
- Volume of distribution of peripheral compartment (Vp) [1, 7]: 630 ± 171 L
- concentration at 24 h ([3]; human, whole blood, iv, 2.5 mg/m^2/day, C24 trough concentration, patients who developed grade III–IV aGVHD (n = 10), mean ± SD): 6.1 ± 2.9 ng/mL
- AUC(0-t) [3, 6]: 401 ± 316 ng·h/mL
- CL/F [3, 6]: 3.17 mL/min/kg
- Tmax [3, 6]: 3.3 ± 1.6 h
- Vd/F [3, 6]: 5.78 ± 5.7 L/kg
- concentration at 24 h ([3]; human, whole blood, oral, 2.5 mg/m^2/day, C24 (trough concentration at 24 hours after oral dosing), i.v. Fluconazole (n = 16), mean ± SD (range)): 10 ng/mL
- concentration at 24 h ([3]; human, whole blood, oral, 2.5 mg/m^2/day, C24 trough concentration, patients with grade 0-II aGVHD (n = 22), mean ± SD): 9.4 ± 5.5 ng/mL
- concentration at 0 h ([3]; human, whole blood, oral, 2.5 mg/m^2/day, i.v. Fluconazole (n = 16), mean ± SD (range)): 8 ng/mL
- Half-life ([3]; human, whole blood, oral, 2.5 mg/m^2/day, Mean t1/2, patients age ≤12 years): 21.8 h
- concentration at 24 h ([3]; human, whole blood, po, 2.5 mg/m^2/day, C24 (trough concentration at 24 hours after oral dosing), All (n = 33), mean ± SD (range)): 9.1 ± 5.3 ng/mL
- concentration at 24 h ([3]; human, whole blood, po, 2.5 mg/m^2/day, C24 (trough concentration at 24 hours after oral dosing), No Fluconazole (n = 11), mean ± SD (range)): 8 ng/mL
- concentration at 24 h ([3]; human, whole blood, po, 2.5 mg/m^2/day, C24 (trough concentration at 24 hours after oral dosing), Oral Fluconazole (n = 6), mean ± SD (range)): 8.6 ng/mL
- concentration at 0 h ([3]; human, whole blood, po, 2.5 mg/m^2/day, All (n = 33), mean ± SD (range)): 8 ± 4.6 ng/mL
- concentration at 0 h ([3]; human, whole blood, po, 2.5 mg/m^2/day, No Fluconazole (n = 11), mean ± SD (range)): 6.8 ng/mL
- concentration at 0 h ([3]; human, whole blood, po, 2.5 mg/m^2/day, Oral Fluconazole (n = 6), mean ± SD (range)): 11 ng/mL
- Difference between trough concentrations (C24 - C0)/C24, average ([3]; n = 33, not significantly greater than 0 (P = .75)): 10.3%
- C24 trough concentration ([3]; patients who developed grade III–IV aGVHD (n = 10), mean ± SD): 6.11 ± 2.89 ng/mL
- C24 trough concentration ([3]; patients with grade 0-II aGVHD (n = 22), mean ± SD): 9.42 ± 5.52 ng/mL
- Share of sirolimus whole-blood concentrations >12 ng/mL ([5]; above target range): 12%
- Share of sirolimus whole-blood concentrations <3 ng/mL ([5]; below target range): 9%
- Share of sirolimus whole-blood (trough) concentrations within target range ([5]; target range 3–12 ng/mL, with therapeutic drug monitoring): 79%
SMILES: CO[C@H]1C[C@@H]2CC[C@@H](C)[C@@](O)(O2)C(=O)C(=O)N2CCCC[C@H]2C(=O)O[C@H]([C@H](C)C[C@@H]2CC[C@@H](O)[C@H](OC)C2)CC(=O)[C@H](C)/C=C(\C)[C@@H](O)[C@@H](OC)C(=O)[C@H](C)C[C@H](C)/C=C/C=C/C=C/1C [sirolimus, Sirolimus]
- Cumulative incidence of grade III–IV aGVHD [2, 8]: 21%
- Cumulative incidence of grade II–IV aGVHD [2, 8]: 38%
- Subjects who developed thrombotic microangiopathy [2, 9]: 3 subjects
- Subjects who developed veno-occlusive disease of liver [2, 9]: 7 subjects
- Dose-normalized C24 ([3]; patients not receiving fluconazole): 2.5 ± 1.7 ng/mL/mg and 2.51 ± 1.72 ng/mL/mg
- Dose-normalized C0 [3, 10]: 3.9 ± 2.5 ng/mL/mg and 3.93 ± 2.5 ng/mL/mg
- Dose-normalized C24 [3, 10]: 4.8 ± 3.3 ng/mL/mg and 4.8 ± 3.34 ng/mL/mg
- AUC0–24 ([4]; adult kidney transplant recipients): 173 ± 50 ng·h/mL
- Half-life ([4]; pediatric liver transplant recipients on sirolimus and tacrolimus): 21.2 ± 14.1 h
- AUC0–24 ([4]; pediatric liver transplant recipients): 168.3 ± 86.5 ng·h/mL
- t1/2 ([4]; 1 month posttransplantation): 9.7 h
- t1/2 ([4]; 3 months posttransplantation): 10.8 h
- AUC0–24 ([4]; pediatric small bowel transplant recipients): 177.4 ± 72.1 ng·h/mL
- Half-life ([4]; small bowel transplant recipients on sirolimus and tacrolimus): 19.3 ± 5.6 h

SMILES: OC(Cn1cncn1)(Cn1cncn1)c1ccc(F)cc1F [Fluconazole]
- In vitro CYP3A4 inhibition, rank among azoles (CYP3A4): weakest in vitro inhibitor of CYP3A4
